The target of the test is T1, human Histamine H3 receptor (hH3R) (Homo sapiens, UniProt Q9Y5N1).
T1 construct: expressed in transfected cells; host or cells: CHO (Chinese Hamster Ovary) cells; membranes
Description: GTPγS binding assay, antagonist activity in membranes of CHO cells expressing hH3R. To be noted: membranes from CHO cells transfected with hH3R; (R)-α-methyl histamine 30 nM; [35S]GTPγS 0.2 nM. The test is classed as biochemical. The text has this:
At least one compound of at least one formula described herein including the compounds described in the Examples hereof, when tested in at least one in vitro assay as substantially described below is active towards H3 receptors. Particularly, at least one compound described herein is an effective H3 receptor ligand. The in vitro activity may be related to in vivo activity but may not be linearly correlated with binding affinity. In the in vitro assay, a compound can be tested for its activity toward H3 receptors and IC50 obtained to determine the activity for a particular compound toward the H3 receptor.
Guanosine 5′-O-(3-[^35S]thio)triphosphate [GTPγS] Binding Assay
A GTPγS binding assay can be used to investigate antagonist properties of compounds in CHO cells (Chinese Hamster Ovary) transfected with human Histamine H3 receptor (hH3R). Membranes from CHO cells expressing hH3R (10 μg/well) are diluted in GTPγS assay buffer (20 mM Hepes, 10 mM MgCl2, 100 mM NaCl, pH 7.4) and preincubated with saponine (3 μg/ml), GDP (10 μM) and PVT-WGA SPA beads (125 μg/well) (Amersham) for 30 minutes. To determine antagonist activity, (R)-α-methyl histamine (30 nM) is added in 96 well SPA plate with [^35S]GTPγS (0.2 nM) and various concentration of H3R antagonists. The GTPγS binding assay is started with addition of the mixture membrane/saponine/GDP and incubated for 90 minutes at room temperature. The amount of bound [^35S]GTPγS is determined by using the MicroBeta Trilux counter (PerkinElmer). The percentage of [^35S]GTPγS bound in each sample is calculated as a percentage of that bound control sample incubated in absence of H3 antagonist. Duplicate determinations are obtained for each concentration, and the data are analyzed using ExcelFit4 to obtain the IC50.
Set forth in Table 1 hereinbelow for the Example 1-34 compounds are IC50 values that were generated in accordance with the GTPγS Binding Assay as essentially described hereinabove.
On the technique in general: GTPγS resists hydrolysis and so accumulates on activated G proteins.

A value given as a limit tells only on which side of the number the result lay.

T1 sequence (Q9Y5N1 whole entry): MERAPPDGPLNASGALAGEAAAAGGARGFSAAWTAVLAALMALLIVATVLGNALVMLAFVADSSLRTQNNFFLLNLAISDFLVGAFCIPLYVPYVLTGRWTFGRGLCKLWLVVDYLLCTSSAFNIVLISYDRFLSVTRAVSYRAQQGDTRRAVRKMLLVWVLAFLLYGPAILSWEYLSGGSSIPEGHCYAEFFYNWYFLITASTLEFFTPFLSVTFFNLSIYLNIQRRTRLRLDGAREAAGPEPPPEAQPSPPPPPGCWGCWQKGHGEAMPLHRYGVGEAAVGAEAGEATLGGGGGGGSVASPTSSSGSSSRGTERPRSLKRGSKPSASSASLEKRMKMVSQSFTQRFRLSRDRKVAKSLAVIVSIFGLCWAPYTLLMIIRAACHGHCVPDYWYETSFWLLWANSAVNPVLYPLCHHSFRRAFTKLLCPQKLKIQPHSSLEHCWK

The term IC50 denotes the point on the concentration scale where inhibition reaches its midpoint. Low readings indicate inhibition by little substance, high ones a need for much substance. Turning to “3-((trans)-2-((R)-4-cyclobutyl-2-methylpiperazine-1-carbonyl)cyclopropyl)benzamide, isomer 1 [Example 28]”, the IC50 turned out to be 5.28 nM. To “3-((trans)-2-((R)-4-cyclobutyl-2-methylpiperazine-1-carbonyl)cyclopropyl)benzamide, isomer 2 [Example 29]” belongs 576 nM; to “3-((trans)-2-((S)-4-cyclobutyl-2-methylpiperazine-1-carbonyl)cyclopropyl)benzamide, isomer 1 [Example 31]”, 6.96 nM; to “3-((trans)-2-((S)-4-cyclobutyl-2-methylpiperazine-1-carbonyl)cyclopropyl)benzamide, isomer 2 [Example 32]”, > 1110 nM.

On to “4-((trans)-2-((R)-4-cyclobutyl-2-methylpiperazine-1-carbonyl)cyclopropyl)benzamide, isomer 2 [Example 9]”, for which the IC50 was 121 nM.

As to “4-((trans)-2-((R)-4-cyclobutyl-3-methylpiperazine-1-carbonyl)cyclopropyl)benzamide, isomer 1 [Example 21]”, the IC50 stood at 6.83 nM. The molecule “4-((trans)-2-((R)-4-cyclobutyl-3-methylpiperazine-1-carbonyl)cyclopropyl)benzamide, isomer 2 [Example 22]” gave an IC50 of 1010 nM. To “4-((trans)-2-((S)-4-cyclobutyl-2-methylpiperazine-1-carbonyl)cyclopropyl)benzamide, isomer 1 [Example 11]” belongs 5.77 nM.

For the molecule “4-((trans)-2-((S)-4-cyclobutyl-2-methylpiperazine-1-carbonyl)cyclopropyl)benzamide, isomer 2 [Example 12]”, the IC50 turned out to be 1320 nM. To “4-((trans)-2-((S)-4-cyclobutyl-3-methylpiperazine-1-carbonyl)cyclopropyl)benzamide, isomer 1 [Example 18]” belongs 5.98 nM; to “4-((trans)-2-((S)-4-cyclobutyl-3-methylpiperazine-1-carbonyl)cyclopropyl)benzamide, isomer 2 [Example 19]”, 1270 nM. With “4-(trans-2-(4-cyclobutyl-3,3-dimethylpiperazine-1-carbonyl)cyclopropyl)benzamide, enantiomer 1 [Example 25]”, the IC50 worked out at 12 nM. For the molecule “4-(trans-2-(4-cyclobutyl-3,3-dimethylpiperazine-1-carbonyl)cyclopropyl)benzamide, enantiomer 2 [Example 26]”, the IC50 was > 1110 nM. Take “4-(trans-2-((R)-4-cyclobutyl-2-ethylpiperazine-1-carbonyl)cyclopropyl)benzamide, isomer 1 [Example 14]”: the IC50 worked out at 15.3 nM.

On to “4-(trans-2-((R)-4-cyclobutyl-2-ethylpiperazine-1-carbonyl)cyclopropyl)benzamide, isomer 2 [Example 15]”, for which the IC50 was 140 nM.

For “4-(trans-2-((R)-4-isopropyl-2-methylpiperazine-1-carbonyl)cyclopropyl)benzamide, isomer 1 [Example 2]”, the IC50 was found to be 5.66 nM. The same measure for “4-(trans-2-((R)-4-isopropyl-2-methylpiperazine-1-carbonyl)cyclopropyl)benzamide, isomer 2 [Example 3]”: 326 nM; for “4-(trans-2-((S)-4-isopropyl-2-methylpiperazine-1-carbonyl)cyclopropyl)benzamide, isomer 1 [Example 5]”: 8.54 nM. Consider “4-(trans-2-((S)-4-isopropyl-2-methylpiperazine-1-carbonyl)cyclopropyl)benzamide, isomer 2 [Example 6]”, for which the IC50 is > 1110 nM. The same measure for `CC(C)N1CCN(C(=O)[C@H]2C[C@@H]2c2ccc(C(N)=O)cc2)[C@H](C)C1` (mixture of isomers) [Example 1, 4-(trans-2-((R)-4-isopropyl-2-methylpiperazine-1-carbonyl)cyclopropyl)benzamide, diastereomeric Mixture]: 7.48 nM. To `CC(C)N1CCN(C(=O)[C@H]2C[C@@H]2c2ccc(C(N)=O)cc2)[C@@H](C)C1` (mixture of isomers) [Example 4, 4-(trans-2-((S)-4-isopropyl-2-methylpiperazine-1-carbonyl)cyclopropyl)benzamide, diastereomeric mixture] belongs 13.5 nM. With `C[C@@H]1CN(C2CCC2)CCN1C(=O)[C@H]1C[C@@H]1c1ccc(C(N)=O)cc1` (mixture of isomers) [Example 7, 4-(trans-2-((R)-4-cyclobutyl-2-methylpiperazine-1-carbonyl)cyclopropyl)benzamide, diastereomeric mixture], the IC50 stood at 8.82 nM. The same measure for `C[C@H]1CN(C2CCC2)CCN1C(=O)[C@H]1C[C@@H]1c1ccc(C(N)=O)cc1` (mixture of isomers) [Example 10, 4-(trans-2-((S)-4-cyclobutyl-2-methylpiperazine-1-carbonyl)cyclopropyl)benzamide, diastereomeric mixture]: 8.06 nM; for `CC[C@@H]1CN(C2CCC2)CCN1C(=O)[C@H]1C[C@@H]1c1ccc(C(N)=O)cc1` (mixture of isomers) [Example 13, 4-(trans-2-((R)-4-cyclobutyl-2-ethylpiperazine-1-carbonyl)cyclopropyl)benzamide, diastereomeric mixture]: 29.1 nM; for `CC[C@H]1CN(C2CCC2)CCN1C(=O)[C@H]1C[C@@H]1c1ccc(C(N)=O)cc1` (mixture of isomers) [Example 16, 4-(trans-2-((S)-4-cyclobutyl-2-ethylpiperazine-1-carbonyl)cyclopropyl)benzamide, diastereomeric mixture]: > 1110 nM.

Consider `C[C@H]1CN(C(=O)[C@H]2C[C@@H]2c2ccc(C(N)=O)cc2)CCN1C1CCC1` (mixture of isomers) [Example 17, 4-(trans-2-((S)-4-cyclobutyl-3-methylpiperazine-1-carbonyl)cyclopropyl)benzamide, diastereomeric mixture], for which the IC50 was 14.2 nM. As to `C[C@@H]1CN(C(=O)[C@H]2C[C@@H]2c2ccc(C(N)=O)cc2)CCN1C1CCC1` (mixture of isomers) [Example 20, 4-(trans-2-((R)-4-cyclobutyl-3-methylpiperazine-1-carbonyl)cyclopropyl)benzamide, diastereomeric mixture], the IC50 was found to be 8.74 nM. To `C[C@@H]1CN(C2CCC2)CCN1C(=O)[C@H]1C[C@@H]1c1cccc(C(N)=O)c1` (mixture of isomers) [Example 27, 3-(trans-2-((R)-4-cyclobutyl-2-methylpiperazine-1-carbonyl)cyclopropyl)benzamide, diastereomeric mixture] belongs 12 nM; to `C[C@H]1CN(C2CCC2)CCN1C(=O)[C@H]1C[C@@H]1c1cccc(C(N)=O)c1` (mixture of isomers) [Example 30, 3-(trans-2-((S)-4-cyclobutyl-2-methylpiperazine-1-carbonyl)cyclopropyl)benzamide, diastereomeric mixture], 16.3 nM; to `C[C@H]1CN(C(=O)[C@H]2C[C@@H]2c2cccc(C(N)=O)c2)CCN1C1CCC1` (mixture of isomers) [Example 33, 3-(trans-2-((S)-4-cyclobutyl-3-methylpiperazine-1-carbonyl)cyclopropyl)benzamide, diastereomeric mixture], 41 nM. For `C[C@@H]1CN(C(=O)[C@H]2C[C@@H]2c2cccc(C(N)=O)c2)CCN1C1CCC1` (mixture of isomers) [Example 34, 3-(trans-2-((R)-4-cyclobutyl-3-methylpiperazine-1-carbonyl)cyclopropyl)benzamide, diastereomeric mixture], the half-inhibitory concentration (IC50) is 51.8 nM. With `CC1(C)CN(C2CCC2)CCN1C(=O)[C@H]1C[C@@H]1c1ccc(C(N)=O)cc1` (racemic) [Example 23, 4-(trans-2-(4-cyclobutyl-2,2-dimethylpiperazine-1-carbonyl)cyclopropyl)benzamide, enantiomeric mixture], the IC50 is > 1110 nM. To `CC1(C)CN(C(=O)[C@H]2C[C@@H]2c2ccc(C(N)=O)cc2)CCN1C1CCC1` (racemic) [Example 24, 4-(trans-2-(4-cyclobutyl-3,3-dimethylpiperazine-1-carbonyl)cyclopropyl)benzamide, enantiomeric mixture] belongs 15.9 nM; to `C[C@@H]1CN(C2CCC2)CCN1C(=O)[C@H]1C[C@@H]1c1ccc(C(N)=O)cc1` [Example 8, 4-((trans)-2-((R)-4-cyclobutyl-2-methylpiperazine-1-carbonyl)cyclopropyl)benzamide, isomer 1], 4.94 nM.

The values are drawn from patent US8993577B2, “Cyclopropyl amide derivatives” (Astrazeneca AB, priority 2009, dated 2015).
